Assay [1] has as its system Smad2/Smad3 phosphorylation. Briefly: Phospho-Smad2/3 Inhibition Assay (western blot), Panc-1. The class given is cell-based, human. Particulars: at 10 μM, Panc-1 pancreatic cancer cell line; starred symbols = activation. In outline:
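Panc-1 cells (KRas G12D), starved overnight in 0.5% FBS, treated 3 h at 37° C with compound at 10 μM final (0.3% DMSO) or serial dilutions for IC50, then stimulated with 10 ng/ml TGF-b1 for 1 h. Phospho-Smad2 (Ser465/467) and phospho-Smad3 (Ser423/425) detected by western blot.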

The test system of the next assay is IL6. Description: IL-6 Quantification Assay (ELISA), LPS-stimulated RAW 264.7. In kind it is cell-based. Also noted: inhibition: dose or concentration left out as unconfirmed. Conditions: Mus musculus, RAW264.7; read-out: IL-6: % inh. (ELISA stands for enzyme-linked immunosorbent assay.)
The test system of another assay is KRas G12C mutant. Briefly: Ras GTP Binding Domain Inhibition Assay (Ras Superfamily Assay). Particulars: 20 μM compound; for KRas G12C mutant + SOS: % inh.: with SOS; for KRas G12C mutant: % inh.: without SOS. Summed up:
(§1)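 His-tagged GTPases immobilised on nickel-coated plates, pre-incubated with compound (20 μM single point, or serial dilution for IC50) 3 h at room temperature, with or without 10-30 μg/mL Sos (residues 556-1049) in the final hour. Bound Cy3- or Cy5-GTP (100 nM, 45 min) measured by fluorescence after washing.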

In a further assay the test system is KRas Q61H mutant. The description is as above. Conditions: 20 μM compound; for KRas Q61H mutant + SOS: % inh.: with SOS; for KRas Q61H mutant: % inh.: without SOS. In outline: as §1
The target in the next assay is T1, Rac-1 (Homo sapiens, UniProt P63000).
T1 construct: made in house
Described as above. Particulars: read-out: Rac-1: % inh. In outline:
as §1

Each structure is given as a SMILES string.

For `Cc1c(-c2ccn(C(C)C)n2)cn2nc(-c3nccn3C)nc(Nc3ncco3)c12` [Compound 60, N-(6-(1-Isopropyl-1H-pyrazol-3-yl)-5-methyl-2-(1-methyl-1H-imidazol-2-yl)pyrrolo[2,1-f][1,2,4]triazin-4-yl)oxazol-2-amine], in assay [1], the “% inh of Smad2/3 phosphorylation in Panc-1” value (“% inh … in Panc-1” below) is on record as “C (C = 46-75% inhibition)”. Moreover, the inhibition in the assay on IL6 turned out to be 0%. Also, in the assay on KRas G12C mutant, the “KRas G12C mutant + SOS: % inh.” value is 0 (0 = 0% inhibition) and the “KRas G12C mutant: % inh.” value was “A (A = 1-25% inhibition)”. Also, in the assay on KRas Q61H mutant, the “KRas Q61H mutant + SOS: % inh.” value is reported as “C (C = 50-75% inhibition)” and the “KRas Q61H mutant: % inh.” value is recorded as “B (B = 26-49% inhibition)”. On Rac-1, the inhibition at 20 µM is 1 to 25%.

On to `COc1cccc(-c2cn3nc(-c4nccn4C)nc(N[C@H]4C[C@H](OC)C4)c3c2-c2ccn(C)n2)c1F` [Compound 47, 6-(2-Fluoro-3-methoxyphenyl)-N-((1r,3r)-3-methoxycyclobutyl)-2-(1-methyl-1H-imidazol-2-yl)-5-(1-methyl-1H-pyrazol-3-yl)pyrrolo[2,1-f][1,2,4]triazin-4-amine], for which the “% inh … in Panc-1” value in assay [1] is “D (D = 76-100% inhibition)”. Further, the inhibition in the assay with IL6 stood at 0%. Further, in the assay with KRas G12C mutant, the “KRas G12C mutant + SOS: % inh.” value is 0 (0 = 0% inhibition) and the “KRas G12C mutant: % inh.” value was 0 (0 = 0% inhibition). In the assay on KRas Q61H mutant, the “KRas Q61H mutant + SOS: % inh.” value was “A (A = 1-25% inhibition)” and the “KRas Q61H mutant: % inh.” value was “A (A = 1-25% inhibition)”. On Rac-1, the inhibition at 20 µM stood at 0%.

On to `COc1cc(-c2cn3nc(-c4nccn4C)nc(Nc4cc(OC)ncn4)c3c2C)ccn1` [Compound 50, 6-(2-Methoxypyridin-4-yl)-N-(6-methoxypyrimidin-4-yl)-5-methyl-2-(1-methyl-1H-imidazol-2-yl)pyrrolo[2,1-f][1,2,4]triazin-4-amine], for which the “% inh … in Panc-1” value in assay [1] is on record as “B (B = 26-45% inhibition)”. Also, the inhibition in the assay with IL6 was 1 to 24%. Further, in the assay with KRas G12C mutant, the “KRas G12C mutant + SOS: % inh.” value is on record as “A (A = 1-25% inhibition)” and the “KRas G12C mutant: % inh.” value is given as “A (A = 1-25% inhibition)”. In addition, in the assay on KRas Q61H mutant, the “KRas Q61H mutant + SOS: % inh.” value is given as “D (D = 76-100% inhibition)” and the “KRas Q61H mutant: % inh.” value is recorded as “D (D = 76-100% inhibition)”. Besides, the inhibition at 20 µM on Rac-1 is 26 to 49%.

For `COC1CCCN(c2nc(-c3ccccn3)nn3cc(-c4ccn(C(C)C)n4)c(-c4ccccc4)c23)C1` (racemic) [Compound 27, rac 6-(1-Isopropyl-1H-pyrazol-3-yl)-4-(3-methoxypiperidin-1-yl)-5-phenyl-2-(pyridin-2-yl)pyrrolo[2,1-f][1,2,4]triazine], in assay [1], the “% inh … in Panc-1” value is given as “D (D = 76-100% inhibition)”. The inhibition in the assay with IL6 was 75 to 100%. In the assay with KRas G12C mutant, the “KRas G12C mutant + SOS: % inh.” value was 0 (0 = 0% inhibition) and the “KRas G12C mutant: % inh.” value is listed as 0 (0 = 0% inhibition). In the assay with KRas Q61H mutant, the “KRas Q61H mutant + SOS: % inh.” value is 0 (0 = 0% inhibition) and the “KRas Q61H mutant: % inh.” value is on record as “A (A = 1-25% inhibition)”. Besides, the inhibition at 20 µM on Rac-1 was 1 to 25%.

On to `Cc1c(-c2ccn(C(C)C)n2)cn2nc(-c3nccn3C)nc(Nc3nc(C4CC4)no3)c12` [Compound 70, 3-Cyclopropyl-N-(6-(1-isopropyl-1H-pyrazol-3-yl)-5-methyl-2-(1-methyl-1H-imidazol-2-yl)pyrrolo[2,1-f][1,2,4]triazin-4-yl)-1,2,4-oxadiazol-5-amine], for which the “% inh … in Panc-1” value in assay [1] is given as 0 (0 = 0% inhibition). Also, the inhibition in the assay with IL6 was in the range of 50 to 74%. In addition, in the assay with KRas G12C mutant, the “KRas G12C mutant + SOS: % inh.” value was 0 (0 = 0% inhibition) and the “KRas G12C mutant: % inh.” value was “A (A = 1-25% inhibition)”. Also, in the assay on KRas Q61H mutant, the “KRas Q61H mutant + SOS: % inh.” value is 0 (0 = 0% inhibition) and the “KRas Q61H mutant: % inh.” value was “A (A = 1-25% inhibition)”. Besides, the inhibition at 20 µM at Rac-1 lay in the range of 1 to 25%.

For the compound `Cc1c(-c2ccn(C(C)C)n2)cn2nc(-c3nccn3C)nc(Nc3ccccn3)c12` [Compound 57, 6-(1-Isopropyl-1H-pyrazol-3-yl)-5-methyl-2-(1-methyl-1H-imidazol-2-yl)-N-(pyridin-2-yl)pyrrolo[2,1-f][1,2,4]triazin-4-amine], the “% inh … in Panc-1” value in assay [1] is listed as “A* (A* = 1-25% activation)”. For the same compound, the inhibition with IL6 lay within 1 to 24%. For the same compound, in the assay on KRas G12C mutant, the “KRas G12C mutant + SOS: % inh.” value is on record as “D (D = 76-100% inhibition)” and the “KRas G12C mutant: % inh.” value is “D (D = 76-100% inhibition)”. In the assay on KRas Q61H mutant, the “KRas Q61H mutant + SOS: % inh.” value is reported as “D (D = 76-100% inhibition)” and the “KRas Q61H mutant: % inh.” value was “D (D = 76-100% inhibition)”. Further, on Rac-1, the inhibition at 20 µM fell in the range of 76 to 100%.

Take `CO[C@H]1CC[C@@H](Nc2nc(-c3nccn3C)nn3cc(-c4ccn(C(C)C)n4)c(C(C)C)c23)C1` (racemic) [Compound 36, rac 5-Isopropyl-6-(1-isopropyl-1H-pyrazol-3-yl)-N-((1R,3S)-3-methoxycyclopentyl)-2-(1-methyl-1H-imidazol-2-yl)pyrrolo[2,1-f][1,2,4]triazin-4-amine]: the “% inh … in Panc-1” value in assay [1] is listed as “D (D = 76-100% inhibition)”. Moreover, the inhibition in the assay with IL6 was 50 to 74%. For the same compound, in the assay on KRas G12C mutant, the “KRas G12C mutant + SOS: % inh.” value is recorded as 0 (0 = 0% inhibition) and the “KRas G12C mutant: % inh.” value is reported as “A (A = 1-25% inhibition)”. In the assay with KRas Q61H mutant, the “KRas Q61H mutant + SOS: % inh.” value is “A (A = 1-25% inhibition)” and the “KRas Q61H mutant: % inh.” value is reported as “A (A = 1-25% inhibition)”. Further, on Rac-1, the inhibition at 20 µM stood at 0%.

On to `Cc1c(-c2ccn(C(C)C)n2)cn2nc(-c3nccn3C)nc(Nc3nnco3)c12` [Compound 59, N-(6-(1-Isopropyl-1H-pyrazol-3-yl)-5-methyl-2-(1-methyl-1H-imidazol-2-yl)pyrrolo[2,1-f][1,2,4]triazin-4-yl)-1,3,4-oxadiazol-2-amine], for which the “% inh … in Panc-1” value in assay [1] was “D (D = 76-100% inhibition)”. In addition, the inhibition in the assay on IL6 is 25 to 49%. For the same compound, in the assay on KRas G12C mutant, the “KRas G12C mutant + SOS: % inh.” value is “B (B = 26-49% inhibition)” and the “KRas G12C mutant: % inh.” value is reported as “C (C = 50-75% inhibition)”. Moreover, in the assay on KRas Q61H mutant, the “KRas Q61H mutant + SOS: % inh.” value is “D (D = 76-100% inhibition)” and the “KRas Q61H mutant: % inh.” value is listed as “D (D = 76-100% inhibition)”. Further, the inhibition at 20 µM at Rac-1 lay in the range of 76 to 100%.

In the case of `COc1cc(Nc2nc(-c3nccn3C)nn3cc(-c4ccn(C)n4)c(C)c23)ncn1` [Compound 63, N-(6-Methoxypyrimidin-4-yl)-5-methyl-2-(1-methyl-1H-imidazol-2-yl)-6-(1-methyl-1H-pyrazol-3-yl)pyrrolo[2,1-f][1,2,4]triazin-4-amine], the “% inh … in Panc-1” value in assay [1] was “D* (D* = 76-100% activation)”. For the same compound, the inhibition in the assay with IL6 was 1 to 24%. Moreover, in the assay on KRas G12C mutant, the “KRas G12C mutant + SOS: % inh.” value was “C (C = 50-75% inhibition)” and the “KRas G12C mutant: % inh.” value is listed as “D (D = 76-100% inhibition)”. In addition, in the assay on KRas Q61H mutant, the “KRas Q61H mutant + SOS: % inh.” value is recorded as “D (D = 76-100% inhibition)” and the “KRas Q61H mutant: % inh.” value was “D (D = 76-100% inhibition)”. In addition, on Rac-1, the inhibition at 20 µM lay within 76 to 100%.

On to `COc1cccc(Nc2nc(-c3nccn3C)nn3ccc(C)c23)n1` [Compound 38, N-(6-Methoxypyridin-2-yl)-5-methyl-2-(1-methyl-1H-imidazol-2-yl)pyrrolo[2,1-f][1,2,4]triazin-4-amine], for which, in assay [1], the “% inh … in Panc-1” value is given as 0 (0 = 0% inhibition). Also, in the assay with IL6, the inhibition lay within 25 to 49%. Besides, in the assay with KRas G12C mutant, the “KRas G12C mutant + SOS: % inh.” value is given as 0 (0 = 0% inhibition) and the “KRas G12C mutant: % inh.” value is listed as 0 (0 = 0% inhibition). In the assay on KRas Q61H mutant, the “KRas Q61H mutant + SOS: % inh.” value is recorded as 0 (0 = 0% inhibition) and the “KRas Q61H mutant: % inh.” value is 0 (0 = 0% inhibition). Besides, the inhibition at 20 µM on Rac-1 was 0%.

`COc1cc(Nc2nc(-c3nccn3C)nn3cc(-c4ccncc4)c(C)c23)ncn1` [Compound 49, N-(6-Methoxypyrimidin-4-yl)-5-methyl-2-(1-methyl-1H-imidazol-2-yl)-6-(pyridin-4-yl)pyrrolo[2,1-f][1,2,4]triazin-4-amine]: in assay [1], the “% inh … in Panc-1” value is “B (B = 26-45% inhibition)”. For the same compound, the inhibition with IL6 is 1 to 24%. In addition, in the assay on KRas G12C mutant, the “KRas G12C mutant + SOS: % inh.” value is 0 (0 = 0% inhibition) and the “KRas G12C mutant: % inh.” value is given as “A (A = 1-25% inhibition)”. In the assay with KRas Q61H mutant, the “KRas Q61H mutant + SOS: % inh.” value was “D (D = 76-100% inhibition)” and the “KRas Q61H mutant: % inh.” value is reported as “D (D = 76-100% inhibition)”. On Rac-1, the inhibition at 20 µM fell in the range of 26 to 49%.

For the compound `Cc1c(-c2ccn(C(C)C)n2)cn2nc(-c3nccn3C)nc(Nc3ncccn3)c12` [Compound 54, 6-(1-Isopropyl-1H-pyrazol-3-yl)-5-methyl-2-(1-methyl-1H-imidazol-2-yl)-N-(pyrimidin-2-yl)pyrrolo[2,1-f][1,2,4]triazin-4-amine], the “% inh … in Panc-1” value in assay [1] is “A (A = 1-25% inhibition)”. Also, the inhibition in the assay with IL6 is 25 to 49%. Further, in the assay on KRas G12C mutant, the “KRas G12C mutant + SOS: % inh.” value was “C (C = 50-75% inhibition)” and the “KRas G12C mutant: % inh.” value is given as “D (D = 76-100% inhibition)”. Further, in the assay on KRas Q61H mutant, the “KRas Q61H mutant + SOS: % inh.” value is “D (D = 76-100% inhibition)” and the “KRas Q61H mutant: % inh.” value was “D (D = 76-100% inhibition)”. On Rac-1, the inhibition at 20 µM lay within 76 to 100%.
